Experimental data reported in patent US10350309B2, “Methods of preparing ophthalmic formulations and uses of same” (Cognoptix, Inc., priority 2013, dated 2019).

What was measured:
[1] = Microscopic examination of mixture after ball milling agitation (particle size, uniformity); format: physicochemical; details: heavy mineral oil, ball milling with 5 mm grinding media beads
Protocol: Microscopic examination of mixtures after ball milling can be used to assess uniformity and to estimate the particle size of the fluorescent molecular rotor compounds. Microscopic examination of the mixtures containing Compound 11 were performed using a compound optical microscope with a calibrated eyepiece micrometer, or reticle. For example, the eyepiece micrometer, reticle, can be aligned and calibrated with the stage micrometer by aligning the zero line of the reticle with the zero line of the stage micrometer, and the ratios between the micrometers or scales can be used to determine sizes and distances.

[2] = HPLC analysis of concentration and degradation of Compound 11 in mineral oil mixtures after ball milling agitation; format: physicochemical
Protocol: The following HPLC method was used to analyze whether the concentration of fluorescent molecular rotor compounds in mixtures of mineral oil and Compound 11 was consistent with the expected concentration of the mixture. The HPLC analysis was also used to evaluate degradation of Compound 11 in the mixture. The HPLC instrument used was a Waters 2695 Separation Module, or equivalent containing a pump capable of delivering a gradient flow rate of 1.0 mL/min or equivalent and a Waters 2487 Multiwavelength Detector, or dual wavelength detector capable of detection at 215 nm and 320 nm, or equivalent. The column used was a Waters Deltapak C18 column, 5 μm, 3.9×150 mm, (Waters Corp., Milford, Mass., Catalog No.: WAT011793). The flow rate was 1.0 mL/min with detection at a wavelength of 215 nm and a column temperature of 25° C. The injection volume used for the concentration sample evaluation was 20 μL and for the related substances sample evaluation was 50 μL. The mobile phases were A: 0.1% trifluoroacetic acid in water, C: methanol, and D: ethanol, and the gradient program shown in Table 2 was used for the HPLC method.
In a mixture sample compared to a standard sample, increased relative peak area of the related substance peak (RT of 3.8 min, Table 3) compared to the peak area of Compound 11 (RT of 8.5 min, Table 3) would indicate degradation of Compound 11. The concentration in the mixture sample of Compound 11 was determined by analyzing the HPLC peak with a retention time of 8.5 min (Table 3) compared to a standard sample of Compound 11.
However, the concentration of the mixture of Compound 11 and heavy mineral oil after ball milling agitation with YTZ® grinding media beads of an average diameter of 0.5 mm was determined by HPLC (RT of 8.5 min, Table 3) to be 4.75 mg/g as compared to an expected concentration of 48.12 mg/g (504.3 mg/10.48 g, mineral oil and Compound 11). […] The concentration as measured by HPLC of the mixture of Compound 11 and heavy mineral oil after ball milling agitation with beads of an average diameter of 5 mm was 44.9 mg/g as compared to an expected concentration of 47.98 mg/g (504.8 mg/10.52 g, mineral oil and Compound 11), which was within the acceptable range.

COCCOCCOCCOC(=O)/C(C#N)=C/c1ccc2cc(N3CCCCC3)ccc2c1 [Compound 11]
particle diameter by microscopic examination [1]: approximately 5 microns
concentration of the mixture determined by HPLC ([2]; heavy mineral oil, ball milling with YTZ beads of average diameter 0.5 mm, expected 48.12 mg/g): 4.75 mg/g
concentration of the mixture measured by HPLC ([2]; heavy mineral oil, ball milling with beads of average diameter 5 mm, expected 47.98 mg/g): 44.9 mg/g
degradation of Compound 11 based on changes in the related substance peak (RT 3.8 min) ([2]; mixture in heavy mineral oil, after ball milling agitation, HPLC): no significant degradation
degradation of Compound 11 as analyzed by HPLC ([2]; mixture in heavy mineral oil, ball milling agitation with YTZ 5 mm beads): without degradation
